Source: ChEMBL document CHEMBL1201862, “PubChem BioAssay data set” (2004)
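Dose response: 5 concentrations. Exposure: 48 h. Format: 96-well plates. Endpoint: linear interpolation; highest concentration if not reached. At the GI50, growth is halved.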 The source made the active and inactive calls. Cut-off read from the data, not from the text of the source: active = GI50 up to about 1.1 µM and inactive = higher.

Experiments:
Test in all cases: inhibition of tumour cell growth, NCI panel, 48 h
[1] = test system: HCT-15
[2] = test system: RXF 393
[3] = test system: SW-620
[4] = test system: CAKI-1
[5] = test system: HT-29
[6] = test system: UACC-257
[7] = test system: SF-295
[8] = test system: NCI-H522
[9] = test system: SK-OV-3
[10] = test system: COLO 205
[11] = test system: XF498
[12] = test system: DLD-1
[13] = test system: RPMI-8226
[14] = test system: U-251
[15] = test system: SNB-19
[16] = test system: SK-MEL-5
[17] = test system: HCT-116
[18] = test system: NCI-H460
[19] = test system: SK-MEL-28
[20] = test system: A549
[21] = test system: MOLT-4
[22] = test system: TK-10
[23] = test system: SR
[24] = test system: SNB-78
[25] = test system: DMS-114
[26] = test system: NCI-H23
[27] = test system: SNB-75
[28] = test system: HOP-92
[29] = test system: ACHN
[30] = test system: DMS-273
[31] = test system: HCC 2998
[32] = test system: M14
[33] = test system: LOX IMVI
[34] = test system: OVCAR-4
[35] = test system: SF-268
[36] = test system: HOP-62
[37] = test system: HOP-18
[38] = test system: LXFL 529
[39] = test system: OVCAR-5
[40] = test system: KM12
[41] = test system: NCI-H226
[42] = test system: SN12C
[43] = test system: Malme-3M
[44] = test system: A498
[45] = test system: SK-MEL-2
[46] = test system: HL-60
[47] = test system: 786-0
[48] = test system: RXF 631
[49] = test system: CCRF-CEM
[50] = test system: OVCAR-3
[51] = test system: SF-539
[52] = test system: OVCAR-8
[53] = test system: UACC-62
[54] = test system: K562
[55] = test system: KM-20L2
[56] = test system: UO-31
[57] = test system: IGROV-1
[58] = test system: EKVX

O=C(NN1C(=O)CS(=O)(=O)C1c1cccc(F)c1)c1ccncc1 (stereo unspecified)
GI50 [1]: > 100 µM
GI50 [2]: > 100 µM (inactive)
GI50 [3]: > 100 µM (inactive)
GI50 [4]: > 100 µM (inactive)
GI50 [5]: > 100 µM (inactive)
GI50 [6]: > 100 µM (inactive)
GI50 [7]: > 100 µM (inactive)
GI50 [8]: > 100 µM (inactive)
GI50 [9]: > 100 µM (inactive)
GI50 [10]: > 100 µM (inactive)
GI50 [11]: 82.6 µM (inactive)
GI50 [12]: > 100 µM (inactive)
GI50 [13]: > 100 µM (inactive)
GI50 [14]: > 10 µM (inactive)
GI50 [15]: > 100 µM (inactive)
GI50 [16]: > 100 µM (inactive)
GI50 [17]: > 100 µM (inactive)
GI50 [18]: > 100 µM (inactive)
GI50 [19]: > 100 µM (inactive)
GI50 [20]: > 100 µM (inactive)
GI50 [21]: > 100 µM (inactive)
GI50 [22]: > 100 µM (inactive)
GI50 [23]: > 100 µM (inactive)
GI50 [24]: > 10 µM (inactive)
GI50 [25]: > 100 µM (inactive)
GI50 [26]: > 10 µM (inactive)
GI50 [27]: 83.8 µM (inactive)
GI50 [28]: > 100 µM (inactive)
GI50 [29]: > 100 µM (inactive)
GI50 [30]: > 100 µM (inactive)
GI50 [31]: > 100 µM (inactive)
GI50 [32]: > 100 µM (inactive)
GI50 [33]: > 100 µM (inactive)
GI50 [34]: > 100 µM (inactive)
GI50 [35]: > 100 µM (inactive)
GI50 [36]: > 100 µM (inactive)
GI50 [37]: < 0.01 µM (active)
GI50 [38]: > 100 µM (inactive)
GI50 [39]: > 100 µM (inactive)
GI50 [40]: > 100 µM (inactive)
GI50 [41]: > 100 µM (inactive)
GI50 [42]: > 100 µM (inactive)
GI50 [43]: > 100 µM (inactive)
GI50 [44]: > 100 µM (inactive)
GI50 [45]: > 100 µM (inactive)
GI50 [46]: > 100 µM (inactive)
GI50 [47]: > 100 µM (inactive)
GI50 [48]: > 100 µM (inactive)

CSc1nc2c(nc(N)n2C2OC(COC(C)=O)C(OC(C)=O)C(OC(C)=O)C2OC(C)=O)c(=O)n1C (stereo unspecified)
GI50 [1]: > 100 µM
GI50 [49]: > 100 µM (inactive)
GI50 [50]: > 100 µM (inactive)
GI50 [2]: > 100 µM (inactive)
GI50 [51]: > 100 µM (inactive)
GI50 [52]: > 100 µM (inactive)
GI50 [3]: > 100 µM (inactive)
GI50 [4]: > 100 µM (inactive)
GI50 [5]: > 100 µM (inactive)
GI50 [6]: > 100 µM (inactive)
GI50 [7]: > 100 µM (inactive)
GI50 [9]: > 100 µM (inactive)
GI50 [10]: > 100 µM (inactive)
GI50 [53]: > 100 µM (inactive)
GI50 [11]: > 100 µM (inactive)
GI50 [12]: > 100 µM (inactive)
GI50 [13]: > 100 µM (inactive)
GI50 [14]: > 100 µM (inactive)
GI50 [15]: > 100 µM (inactive)
GI50 [54]: > 100 µM (inactive)
GI50 [55]: > 100 µM (inactive)
GI50 [16]: > 100 µM (inactive)
GI50 [17]: > 100 µM (inactive)
GI50 [18]: > 100 µM (inactive)
GI50 [20]: > 100 µM (inactive)
GI50 [21]: > 100 µM (inactive)
GI50 [22]: > 100 µM (inactive)
GI50 [24]: > 100 µM (inactive)
GI50 [25]: > 100 µM (inactive)
GI50 [26]: > 100 µM (inactive)
GI50 [27]: > 100 µM (inactive)
GI50 [28]: > 100 µM (inactive)
GI50 [29]: > 100 µM (inactive)
GI50 [56]: > 100 µM (inactive)
GI50 [31]: > 100 µM (inactive)
GI50 [32]: > 100 µM (inactive)
GI50 [33]: > 100 µM (inactive)
GI50 [34]: > 100 µM (inactive)
GI50 [57]: > 100 µM (inactive)
GI50 [36]: > 100 µM (inactive)
GI50 [37]: > 100 µM (inactive)
GI50 [58]: > 100 µM (inactive)
GI50 [38]: > 100 µM (inactive)
GI50 [39]: > 100 µM (inactive)
GI50 [40]: > 100 µM (inactive)
GI50 [41]: > 100 µM (inactive)
GI50 [42]: > 100 µM (inactive)
GI50 [43]: > 100 µM (inactive)
GI50 [44]: > 100 µM (inactive)
GI50 [45]: > 100 µM (inactive)
GI50 [46]: > 100 µM (inactive)
GI50 [47]: > 100 µM (inactive)
GI50 [48]: > 100 µM (inactive)
